Legend:
[1] = system: mouse ES stem cells; assay: Chemical mutagenesis of cell suspensions, cytotoxicity of the mutagen; assay type: cell-based; conditions: cell suspensions (eg, mouse ES stem cells) exposed to doses as high as 0.4 mg/mL for 2 to 3 hours
Text: In this regard, numerous chemical mutagens have been described and used in the past, as described for instance by Russell et al., Biology of Mammalian Germ Cell Mutagenesis, Cold Spring Harbor Laboratory Press, 1990:271-285; Rinchik E. M., Trends in Genetics, 1991;7(1):15-21; or Marker et al., Genetics, 1997;145(2):435-443. For mutagenesis, cells are preferably treated with increasing amounts of the chemical mutagen(s) either in whole animals or in cell suspensions, to assess the cytotoxicity of the chemical mutagen(s). Typical doses have been described in the literature as cited above. For example, cell suspensions (eg, mouse ES stem cells) are exposed to doses of N-ethyl-N-nitrosourea (ENU) as high as 0.4 mg/mL for 2 to 3 hours, which results in more than 98% of the cells dying. […] Other mutagens include for instance intercalating agents, alkylating agents, strand breaking agents, mismatch-inducing agents, etc.

[2] = system: DNA; conditions: compared with other mutagenic agents; cited from earlier work

CCN(N=O)C(N)=O [ENU, N-ethyl-N-nitrosourea]
cells dying [1]: more than 98% | efficiency in generating mutations relative to other agents [2]: at least 10 times

— patent US20010046704A1, “Methods and compositions to activate genes in cells” (priority 2000, published 2001)
